Laboratory results reported in patent US8143282B2, “Heterocyclic compounds” (S*BIO Pte Ltd., priority 2005, dated 2012).

Tests used:
[1] = biological target: T1, HDAC1 enzyme (Homo sapiens, UniProt Q13547); assay: In vitro HDAC assay for determination of IC50 values (BIOMOL fluorescent-based HDAC activity assay); type: biochemical
T1 construct: Amplification of human HDAC1 coding region from this cDNA library was cloned separately into the baculovirus expression pDEST20 vector; made in house; host or cells: SF9 insect cells, pDEST20-HDAC1 baculovirus
Method: Human cDNA library was prepared using cultured SW620 cells. Amplification of human HDAC1 coding region from this cDNA library was cloned separately into the baculovirus expression pDEST20 vector (GATEWAY Cloning Technology, Invitrogen Pte Ltd). The pDEST20-HDAC1 construct was confirmed by DNA sequencing. Recombinant baculovirus was prepared using the Bac-To-Bac method following the manufacturer's instruction (Invitrogen Pte Ltd).
Expression of GST-HDAC1 was done by infecting SF9 cells (Invitrogen Pte Ltd) with pDEST20-HDAC1 baculovirus at MOI=1 for 48 h. Soluble cell lysate was incubated with pre-equilibrated Glutathione Sepharose 4B beads (Amersham) at 4° C. for 2 h. The beads were washed with PBS buffer for 3 times. The GST-HDAC1 protein was eluted by elution buffer containing 50 mM Tris, pH8.0, 150 mM NaCl, 1% Triton X-100 and 10 mM or 20 mM reduced Glutathione. The purified GST-HDAC1 protein was dialyzed with HDAC storage buffer containing 10 mM Tris, pH7.5, 100 mM NaCl and 3 mM MgCl2. 20% Glycerol was added to purified GST-HDAC1 protein before storage at −80° C.
The assay has been carried out in 96 well format and the BIOMOL fluorescent-based HDAC activity assay has been applied. […] Flur de lys Developer was added and the reaction was incubated for 10 min. Briefly, deacetylation of the substrate sensitizes it to the developer, which then generates a fluorophore. The fluorophore is excited with 360 nm light and the emitted light (460 nm) is detected on a fluorometric plate reader (Tecan Ultra Microplate detection system, Tecan Group Ltd.).
The analytical software, Prism 4.0 (GraphPad Software Inc) has been used to generate IC50 from a series of data.

[2] = system: Colo205 cells; assay: Cell-based proliferation assay for GI50 (CyQUANT), Colo205; details: Homo sapiens, COLO 205, 96 h treatment, read-out: Cellular or Growth Inhibition Activity in Colo205 cells, GI50
Method: Human colon cancer cell lines (Colo205, HCT116), Ovarian cancer cell line (A2780), Hepatoma cell line (HEP3B), Prostate cancer cell line (PC3) were obtained from ATCC or ECACC. Colo205 cells were cultivated in RPMI 1640 containing 2 mM L-Glutamine, 5% FBS, 1.0 mM Na Pyruvate, 1 U/ml of penicillin and 1 μg of streptomycin. HCT116 cells were cultivated in McCoy's containing RPMI 1640 containing 2 mM L-Glutamine, 5% FBS, 1 U/ml of penicillin and 1 μg of streptomycin. A2780 cells were cultivated in RPMI 1640 containing 2 mM L-Glutamine, 5% FBS, 1 U/ml of penicillin and 1 μg of streptomycin. HEP3B cells were cultivated in EMEM containing 2 mM L-glutamine, 5% FBS, 1% non essential amino acid, 1 mM Na Pyruvate, 1 U/ml of penicillin and 1 μg of streptomycin. PC3 cells were cultivated in F12K, 2 mM L-glutamine, 5% FBS, 1 U/ml of penicillin and 1 μg of streptomycin. PC3, Colo205, and HCT116 cells were seeded in 96-wells plate at 1000, 5000 and 6000 cells per well respectively. A2780 and HEP3B cells were seeded in 96-wells plate at 4000 cells per well respectively. The plates were incubated at 37° C., 5% CO2, for 24 h. Cells were treated with compounds at various concentrations for 96 h. Cell growth was then monitored using CyQUANT® cell proliferation assay (Invitrogen Pte Ltd). Dose response curves were plotted to determine GI50 values for the compounds using XL-fit (ID Business Solution, Emeryville, Calif.). GI50 is defined as the concentration of compound required for 50% inhibition of cell growth.

T1 sequence (Q13547 whole entry): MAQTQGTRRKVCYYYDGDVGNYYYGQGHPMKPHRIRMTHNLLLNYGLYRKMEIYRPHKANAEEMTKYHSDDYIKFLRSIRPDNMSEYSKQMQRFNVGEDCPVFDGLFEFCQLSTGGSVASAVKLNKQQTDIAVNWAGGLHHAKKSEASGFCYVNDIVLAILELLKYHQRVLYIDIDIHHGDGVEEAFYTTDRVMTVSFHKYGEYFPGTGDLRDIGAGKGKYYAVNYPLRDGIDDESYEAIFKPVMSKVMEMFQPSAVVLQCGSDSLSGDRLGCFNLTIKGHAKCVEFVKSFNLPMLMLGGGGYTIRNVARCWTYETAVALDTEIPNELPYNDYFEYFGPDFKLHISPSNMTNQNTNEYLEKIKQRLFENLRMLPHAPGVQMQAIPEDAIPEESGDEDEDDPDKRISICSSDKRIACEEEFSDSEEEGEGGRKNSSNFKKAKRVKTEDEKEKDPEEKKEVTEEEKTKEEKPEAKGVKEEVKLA

Compound | IC50 [1] [nM] | GI50 [2] [nM]
CC(Cc1nc2cc(/C=C/C(=O)NO)ccc2n1CCNC(C)C)CC(C)(C)C (stereo not drawn) [Compound 39, N-Hydroxy-3-[1-(2-isopropylamino-ethyl)-2-(2,4,4-trimethyl-pentyl)-1H-benzoimidazol-5-yl]-acrylamide] | 24 | 230
CCN(CC)CCn1c(CC(C)CC(C)(C)C)nc2cc(/C=C/C(=O)NO)ccc21 (stereo not drawn) [Compound 41, 3-[1-(2-Diethylamino-ethyl)-2-(2,4,4-trimethyl-pentyl)-1H-benzoimidazol-5-yl]-N-hydroxy-acrylamide] | 62 | 920
CCCc1nc2cc(/C=C/C(=O)NO)ccc2n1CCN(CC)CC [Compound 42, 3-[1-(2-Diethylamino-ethyl)-2-propyl-1H-benzoimidazol-5-yl]-N-hydroxy-acrylamide] | 150 | 980
CCCCc1nc2cc(/C=C/C(=O)NO)ccc2n1CCN(C(C)C)C(C)C [Compound 43, 3-[2-Butyl-1-(2-diisopropylamimo-ethyl)-1H-benzoimidazol-5-yl]-N-hydroxy-acrylamide] | 330 | 1860
CCN(CC)CCn1c(CCSC)nc2cc(/C=C/C(=O)NO)ccc21 [Compound 45, 3-[1-(2-Diethylamino-ethyl)-2-(2-methylsulfanyl-ethyl)-1H-benzoimidazol-5-yl]-N-hydroxy-acrylamide] | 53 | 540
CCCCc1nc2cc(/C=C/C(=O)NO)ccc2n1CCCNC(C)C [Compound 47, 3-[2-Butyl-1-(3-isopropylamino-propyl)-1H-benzoimidazol-5-yl]-N-hydroxy-acrylamide] | 210 | 3600
CCCCc1nc2cc(/C=C/C(=O)NO)ccc2n1C1CCN(Cc2ccccc2)CC1 [Compound 48, 3-[1-(1-Benzyl-piperidin-4-yl)-2-butyl-1H-benzoimidazol-5-yl]-N-hydroxy-acrylamide] | 430 | 780
C=CCCc1nc2cc(/C=C/C(=O)NO)ccc2n1CCNCC [Compound 49, 3-[2-But-3-enyl-1-(2-ethylamino-ethyl)-1H-benzoimidazol-5-yl]-N-hydroxy-acrylamide] | 110 | 1750
CC(Cc1nc2cc(/C=C/C(=O)NO)ccc2n1CCN(C)C)CC(C)(C)C (stereo not drawn) [Compound 51, 3-[1-(2-Dimethylamino-ethyl)-2-(2,4,4-trimethyl-pentyl)-1H-benzoimidazol-5-yl]-N-hydroxy-acrylamide] | 66 | 260
CC(C)NCCn1c(CCC(F)(F)F)nc2cc(/C=C/C(=O)NO)ccc21 [Compound 53, N-Hydroxy-3-[1-(2-isopropylamino-ethyl)-2-(3,3,3-trifluoro-propyl)-1H-benzoimidazol-5-yl]-acrylamide] | 100 | 1050
CC/C=C\CCc1nc2cc(/C=C/C(=O)NO)ccc2n1CCN(C)C [Compound 54, 3-[1-(2-Dimethylamino-ethyl)-2-hex-3-enyl-1H-benzoimidazol-5-yl]-N-hydroxy-acrylamide] | 48 | 460
CC(Cc1nc2cc(/C=C/C(=O)NO)ccc2n1CCN)CC(C)(C)C (stereo not drawn) [Compound 55, 3-[1-(2-Amino-ethyl)-2-(2,4,4-trimethyl-pentyl)-1H-benzoimidazol-5-yl]-N-hydroxy-acrylamide] | 37 | 910
CCCCCCCC(Cc1nc2cc(/C=C/C(=O)NO)ccc2n1CCN)OC (stereo not drawn) [Compound 56, 3-[1-(2-Amino-ethyl)-2-(2-methoxy-nonyl)-1H-benzoimidazol-5-yl]-N-hydroxy-acrylamide] | 29 | 900
CCN(CC)CCn1c(CCNC(=O)CC(C)(C)C)nc2cc(/C=C/C(=O)NO)ccc21 [Compound 59, N-{2-[1-(2-Diethylamino-ethyl)-5-(2-hydroxycarbamoyl-vinyl)-1H-benzoimidazol-2-yl]-ethyl}-3,3-dimethyl-butyramide] | 77 | 2280
CCN(CC)CCn1c(CCNC(=O)C(C)(C)C)nc2cc(/C=C/C(=O)NO)ccc21 [Compound 60, 3-{1-(2-Diethylamino-ethyl)-2-[2-(2,2-dimethyl-propionylamino)-ethyl]-1H-benzoimidazol-5-yl}-N-hydroxy-acrylamide] | 100 | 2480
CCN(CC)CCn1c(CNC(=O)C(C)(C)C)nc2cc(/C=C/C(=O)NO)ccc21 [Compound 61, 3-{1-(2-Diethylamino-ethyl)-2-[(2,2-dimethyl-propionylamino)-methyl]-1H-benzoimidazol-5-yl}-N-hydroxy-acrylamide] | 70 | 1320
CCCC(=O)NCc1nc2cc(/C=C/C(=O)NO)ccc2n1CCN(CC)CC [Compound 62, N-[1-(2-Diethylamino-ethyl)-5-(2-hydroxycarbamoyl-vinyl)-1H-benzoimidazol-2-ylmethyl]-butyramide] | 54 | 2600
CN(C)CCn1c(CCC(C)(C)C)nc2cc(/C=C/C(=O)NO)ccc21 [Compound 64, 3-[2-(3,3-Dimethyl-butyl)-1-(2-Dimethylamino-ethyl)-1H-benzoimidazol-5-yl]-N-hydroxy-acrylamide] | 100 | 730
CN(C)CCn1c(CC(F)(F)F)nc2cc(/C=C/C(=O)NO)ccc21 [Compound 66, 3-[1-(2-Dimethylamino-ethyl)-2-(2,2,2-trifluoro-ethyl)-1H-benzoimidazol-5-yl]-N-hydroxy-acrylamide] | 340 | 8800
CCCCc1nc2cc(/C=C/C(=O)NO)ccc2n1C1CCNCC1 [Compound 70, 3-(2-Butyl-1-piperidin-4-yl-1H-benzoimidazol-5-yl)-N-hydroxy-acrylamide] | 68 | 7000
CCCCC/C=C\CCc1nc2cc(/C=C/C(=O)NO)ccc2n1CCNC [Compound 72, N-Hydroxy-3-[1-(2-methylamino-ethyl)-2-non-3-enyl-1H-benzoimidazol-5-yl]-acrylamide] | 17 | 160
CC/C=C\CCCCCc1nc2cc(/C=C/C(=O)NO)ccc2n1CCNC [Compound 73, N-Hydroxy-3-[1-(2-methylamino-ethyl)-2-non-6-enyl-1H-benzoimidazol-5-yl]-acrylamide] | 26 | 230
CCCCCc1nc2cc(/C=C/C(=O)NO)ccc2n1CCNC [Compound 75, N-Hydroxy-3-[1-(2-methylamino-ethyl)-2-pentyl-1H-benzoimidazol-5-yl]-acrylamide] | 50 | 1200
CCCCCCCCc1nc2cc(/C=C/C(=O)NO)ccc2n1CCNC [Compound 76, N-Hydroxy-3-[1-(2-methylamino-ethyl)-2-octyl-1H-benzoimidazol-5-yl]-acrylamide] | 18 | 290
CCCCCCCCc1nc2cc(/C=C/C(=O)NO)ccc2n1CCN [Compound 77, 3-[1-(2-Amino-ethyl)-2-octyl-1H-benzoimidazol-5-yl]-N-hydroxy-acrylamide] | 26 | 670
CCCCCc1nc2cc(/C=C/C(=O)NO)ccc2n1CCN(C)CC [Compound 79, 3-{1-[2-(Ethyl-methyl-amino)-ethyl]-2-pentyl-1H-benzoimidazol-5-yl}-N-hydroxy-acrylamide] | 40 | 450
CCCCc1nc2cc(/C=C/C(=O)NO)ccc2n1C1CCN(C)C1 (stereo not drawn) [Compound 81, 3-[2-Butyl-1-(1-methyl-pyrrolidin-3-yl)-1H-benzoimidazol-5-yl]-N-hydroxy-acrylamide] | 120 | 1000
